Experimental data reported in patent publication US20220002268A1, “NOVEL HETEROARYL-TRIAZOLE AND HETEROARYL-TETRAZOLE COMPOUNDS AS PESTICIDES” (Bayer Aktiengesellschaft, priority 2019, published 2022).

Legend:
Diabrotica balteata = Diabrotica balteata spray test; format: in vivo; conditions: 168 h, 160 gg/well, after 7 days, read-out: efficacy (seedlings grown)
Description: Diabrotica balteata—Spray Test Solvent: 78.0 parts by weight of acetone • • 1.5 parts by weight of dimethylformamide Emulsifier: alkylarylpolyglycol ether
(§1) To produce a suitable preparation of active compound, 1 part by weight of active compound is mixed with the stated amount of solvent, and the concentrate is diluted with water, containing an emulsifier concentration of 1000 ppm, to the desired concentration. Further test concentrations are prepared by dilution with emulsifier containing water.
Soaked wheat seeds (Triticum aestivum) are placed in a multiple well plate filled with agar and some water and are incubated for 1 day to germinate (5 seeds per well). The germinated wheat seeds are sprayed with a test solution containing the desired concentration of the active ingredient. Afterwards each unit is infected with 10-20 larvae of the banded cucumber beetle (Diabrotica balteata).
After 7 days efficacy in % is determined. 100% means all the seedlings have grown up like in the untreated, uninfected control; 0% means none of the seedlings have grown.

Myzus persicae = Myzus persicae oral test; format: in vivo; conditions: 120 h, after 5 days
Description: Myzus persicae—Oral Test Solvent: 100 parts by weight acetone
To produce a suitable preparation of active compound, 1 part by weight of active compound is mixed with the stated amount of solvent, and the concentrate is diluted with water to the desired concentration.
50 μl compound solution is filled in microtiter plates and 150 μl IPL41 insect medium (33%+15% sugar) is added to obtain a total volume of 200 μl per well. Afterwards the plates are sealed with parafilm through which a mixed population of the green peach aphid (Myzus persicae) can suck on the compound preparation.
After 5 days mortality in % is determined. 100% means all aphids have been killed and 0% means none of the aphids have been killed.

Phaedon cochleariae = Phaedon cochleariae spray test; format: in vivo; conditions: 168 h, after 7 days
Description: Phaedon cochleariae—Spray Test Solvent: 78.0 parts by weight of acetone • • 1.5 parts by weight of dimethylformamide Emulsifier: alkylarylpolyglycol ether
as §1, with “solvents” for “solvent,”, “and” for “and the concentrate”
Chinese cabbage (Brassica pekinensis) leaf disks are sprayed with a preparation of the active ingredient of the desired concentration. Once dry, the leaf disks are infested with mustard beetle larvae (Phaedon cochleariae).
After 7 days mortality in % is determined. 100% means all beetle larvae have been killed and 0% means none of the beetle larvae have been killed.

Boophilus microplus = Boophilus microplus injection test; format: in vivo; conditions: Rhipicephalus microplus, 168 h; 20 gg/animal, injection into abdomen, after 7 days; read-out: efficacy (infertile eggs)
Description: Boophilus microplus—Injection Test Solvent: dimethyl sulfoxide To produce a suitable preparation of active compound, 10 mg of active compound are dissolved in 0.5 ml solvent, and the concentrate is diluted with solvent to the desired concentration. Five adult engorged female ticks (Boophilus microplus) are injected with 1 μl compound solution into the abdomen. The ticks are transferred into replica plates and incubated in a climate chamber. After 7 days egg deposition of fertile eggs is monitored. Eggs where fertility is not visible are stored in a climate chamber till hatching after about 42 days. An efficacy of 100% means all eggs are infertile; 0% means all eggs are fertile.

Ctenocephalides felis [1] = assay: Ctenocephalides felis oral test; format: in vivo; conditions: 48 h, 100 ppm in cattle blood, after 2 days
Description: Ctenocephalides felis—Oral Test Solvent: dimethyl sulfoxide
To produce a suitable preparation of active compound, 10 mg of active compound are dissolved in 0.5 ml solvent, and the concentrate is diluted with cattle blood to the desired concentration.
Approximately 20 adult unfed cat fleas (Ctenocephalides felis) are placed in flea chambers. The blood chamber, sealed with parafilm on the bottom, are filled with cattle blood supplied with compound solution and placed on the gauze covered top of the flea chamber, so that the fleas are able to suck the blood. The blood chamber is heated to 37° C. whereas the flea chamber is kept at room temperature.
After 2 days mortality in % is determined. 100% means all the fleas have been killed; 0% means none of the fleas have been killed.

[2] = tested on: Aedes aegypti strain MONHEIM; assay: Aedes aegypti test (AEDSAE surface treatment & contact assay); format: in vivo; conditions: surface concentration 20 mg/m^2, 30 minutes exposure, 24 hours after contact, read-out: efficacy (mortality)
Description: Aedes aegyti Test (AEDSAE Surface Treatment & Contact Assay) Solvent: Aceton+2000 ppm rapeseed oil methyl ester (RME)
(§2) In order to produce a sufficient, active ingredient containing solution it is necessary to solve the test compound in the solvent-mix (acetone at 2 mg/ml/RME 2000 ppm). This solution is pipetted onto a glazed tile and after evaporation of the acetone, adult mosquitoes of the species Aedes aegypti strain MONHEIM are placed onto the dried surface. The exposure time is 30 minutes.
(§3) Mortality in percent (%) is determined 24 hours after contact to the treated surface. 100% mortality means that all tested insects are dead, whereas 0% means that no insect died.

[3] = log P by HPLC on reversed phase, neutral range; format: physicochemical; conditions: reversed phase HPLC column, LC-UV, 0.001 molar ammonium acetate solution in water and acetonitrile
Description: Measurement of log P values was performed according to EEC directive 79/831 Annex V.A8 by HPLC (High Performance Liquid Chromatography) on reversed phase columns with the following methods. Instrument(s): Agilent 1100 LC system, Agilent MSD system, HTS PAL; Waters IClass Acquity UPLC, SQD2 (MS), PDA (UV). […] Calibration was done with straight-chain alkan-2-ones (with 3 to 16 carbon atoms) with known log P values (measurement of log P values using retention times with linear interpolation between successive alkanones). Lambda-max-values were determined using UV-spectra from 200 nm to 400 nm and the peak values of the chromatographic signals.

Ctenocephalides felis [4] = assay: Ctenocephalides felis in-vitro contact test, adult cat flea; format: in vivo; conditions: 5 μg/cm^2, after 48 hours
Description: (§4) 9 mg compound is solved in 1 ml acetone and diluted with acetone to the desired concentration. 250 μl of the test solution is filled in 25 ml glass test tubes and homogeneously distributed on the inner walls by rotation and tilting on a shaking device (2 h at 30 rpm). With a compound concentration of 900 ppm, an inner surface of 44.7 cm^2 and a homogeneous distribution, a dose of 5 μg/cm^2 is achieved.
(§5) After the solvent has evaporated, each test tube is filled with 5-10 adult cat fleas (Ctenocephalides felis), closed with a perforated lid and incubated in a lying position at room temperature and relative humidity. After 48 hours efficacy is determined. The fleas are patted on the ground of the tubes and are incubated on a heating plate at 45-50° C. for at most 5 minutes. Immotile or uncoordinated moving fleas, which are not able to escape the heat by climbing upwards, are marked as dead or moribund.
An efficacy of 100% means all fleas are dead or moribund; 0% means no fleas are dead or moribund.

Spodoptera frugiperda = Spodoptera frugiperda spray test; format: in vivo; conditions: 168 h, after 7 days
Description: Suodontera frugiuerda—Spray Test Solvent: 78.0 parts by weight acetone • 1.5 parts by weight dimethylformamide Emulsifier: alkylarylpolyglycol ether
as §1, with “solvents” for “solvent,”, “and” for “and the concentrate”
Maize (Zea mays) leaf sections are sprayed with a preparation of the active ingredient of the desired concentration. Once dry, the leaf sections are infested with fall armyworm larvae (Spodoptera frugiperda).
After 7 days mortality in % is determined. 100% means all caterpillars have been killed and 0% means none of the caterpillars have been killed.

Rhipicephalus sanguineus = Rhipicephalus sanguineus in-vitro contact test, adult brown dog ticks; format: in vivo; conditions: 5 gg/cm^2, after 48 hours
Description: as §4
as §5, with “brown dog ticks (Rhipicephalus sanguineus),” for “cat fleas (Ctenocephalides felis),”, “ticks” for “fleas”, “ticks,” for “fleas,”
An efficacy of 100% means all ticks are dead or moribund; 0% means no ticks are dead or moribund.

[5] = tested on: Culex quinquefasciatus strain P00; assay: whole plant or invertebrate; format: in vivo; conditions: read-out: efficacy (mortality)
Description: Culex quinquefasciatus Test (CULXFA Surface Treatment & Contact Assay) Solvent: Aceton+2000 ppm rapeseed oil methyl ester (RME)
as §2, with “Culex quinquefasciatus” for “Aedes aegypti”, “P00” for “MONHEIM”
as §3

[6] = tested on: Anopheles funestus strain FUMOZ-R; assay: whole plant or invertebrate; format: in vivo; conditions: read-out: efficacy (mortality)
Description: Anopheles funestus Test (ANPHFU Surface Treatment & Contact Assay) Solvent: Aceton+2000 ppm rapeseed oil methyl ester (RME)
as §2, with “Anopheles funestus” for “Aedes aegypti”, “FUMOZ-R (Hunt et al., Med. Vet. Entomol. 2005 September; 19(3): 271-275)” for “MONHEIM”
as §3

Nilaparvata lugens = Nilaparvata lugens spray test; format: in vivo; conditions: 96 h, after 4 days
Description: Nilaparvata lugens—Spray Test Solvent: 78.0 parts by weight of acetone • • 1.5 parts by weight of dimethylformamide Emulsifier: alkylarylpolyglycol ether
as §1, with “solvents” for “solvent,”, “and” for “and the concentrate”
Rice plants (Oryza sativa) are sprayed with a preparation of the active ingredient of the desired concentration and the plants are infested with the brown planthopper (Nilaparvata lugens).
After 4 days mortality in % is determined. 100% means all planthoppers have been killed and 0% means none of the planthoppers have been killed.

O=C(c1cc(Cl)cc(Cl)c1)N(Cc1ncnn1-c1ncccn1)CC1CC1 [Example I-010]
pest or weed control at 160 µg/well (Diabrotica balteata): 100%
mortality at 20 ppm (Myzus persicae): 100%
mortality at 500 g/ha (Phaedon cochleariae): 100%

O=C(NC1(c2ncnn2-c2ncccn2)CC1)c1cc(C(F)(F)F)cc(C(F)(F)F)c1 [Example I-014]
pest or weed control at 0.02 mg (Boophilus microplus): 100%

O=C(NCCc1ncnn1-c1ncccn1)c1cc(Cl)cc(C(F)(F)F)c1 [Example I-006]
pest or weed control at 0.02 mg (Boophilus microplus): 100%
mortality at 100 ppm (Ctenocephalides felis [1]): 100%
pest or weed control at 160 µg/well (Diabrotica balteata): 100%
mortality at 20 ppm (Myzus persicae): 100%
mortality at 500 g/ha (Phaedon cochleariae): 100%
mortality at 20 mg/m2 [2]: 85 to 100%

N#Cc1ccc(-n2ncnc2CCN)nc1 [a-003]
chromatographic logP [3]: 0.87

COC[C@H](NC(=O)c1cc(Cl)cc(Cl)c1)c1ncnn1-c1ccc(C#N)cn1 [Example I-017]
efficacy (fleas dead or moribund) (Ctenocephalides felis [4]): 90%
mortality at 500 g/ha (Spodoptera frugiperda): 100%

O=C(c1cccc(C(F)(F)F)c1)N(Cc1ncnn1-c1ncccn1)CC1CC1 [Example I-003]
pest or weed control at 0.02 mg (Boophilus microplus): 100%
pest or weed control at 160 µg/well (Diabrotica balteata): 100%
mortality at 20 ppm (Myzus persicae): 100%
mortality at 500 g/ha (Phaedon cochleariae): 100%

O=C(NC(c1ncnn1-c1ncccn1)C1CC1)c1cc(Cl)cc(C(F)(F)F)c1 (stereo not shown) [Example I-008]
pest or weed control at 0.02 mg (Boophilus microplus): 95%
mortality at 100 ppm (Ctenocephalides felis [1]): 100%
mortality at 500 g/ha (Phaedon cochleariae): 100%

O=C(NC(CC1CC1)c1ncnn1-c1ncccn1)c1cc(Cl)cc(C(F)(F)F)c1 (stereo not shown) [Example I-007]
mortality at 20 ppm (Myzus persicae): 100%

O=C(NCc1ncnn1-c1ncccn1)c1cc(Cl)cc(C(F)(F)F)c1 [Example I-005]
efficacy (fleas dead or moribund) (Ctenocephalides felis [4]): 100%
efficacy (ticks dead or moribund) (Rhipicephalus sanguineus): 100%
pest or weed control at 0.02 mg (Boophilus microplus): 100%
mortality at 100 ppm (Ctenocephalides felis [1]): 100%
pest or weed control at 160 µg/well (Diabrotica balteata): 100%
mortality at 20 ppm (Myzus persicae): 100%
mortality at 500 g/ha (Phaedon cochleariae): 100%
mortality at 500 g/ha (Spodoptera frugiperda): 100%
mortality at 20 mg/m2 [2]: 85 to 100%
mortality at 4 mg/m2 [5]: 85 to 100%
mortality at 20 mg/m2 [5]: 85 to 100%
mortality at 4 mg/m2 [6]: 85 to 100%
mortality at 20 mg/m2 [6]: 85 to 100%

COCC(NC(=O)c1cc(Cl)cc(C(F)(F)F)c1)c1ncnn1-c1ccc(C#N)cn1 (stereo not shown) [Example I-013]
pest or weed control at 0.02 mg (Boophilus microplus): 100%
mortality at 100 ppm (Ctenocephalides felis [1]): 100%
mortality at 500 g/ha (Spodoptera frugiperda): 100%

COCC(NC(=O)c1cc(Cl)cc(C(F)(F)F)c1)c1ncnn1-c1ncccn1 (stereo not shown) [Example I-012, 3-Chloro-N-{2-methoxy-1-[1-(pyrimidin-2-yl)-1H-1,2,4-triazol-5-yl]ethyl}-5-(trifluoromethyl)-benzamide]
efficacy (fleas dead or moribund) (Ctenocephalides felis [4]): 100%
efficacy (ticks dead or moribund) (Rhipicephalus sanguineus): 80%
pest or weed control at 0.02 mg (Boophilus microplus): 100%
mortality at 100 ppm (Ctenocephalides felis [1]): 100%
pest or weed control at 160 µg/well (Diabrotica balteata): 100%
mortality at 20 ppm (Myzus persicae): 100%
mortality at 500 g/ha (Nilaparvata lugens): 100%
mortality at 500 g/ha (Phaedon cochleariae): 100%

COC[C@H](NC(=O)c1cc(Cl)cc(OC(F)(F)F)c1)c1ncnn1-c1ccc(C#N)cn1 [Example I-018]
mortality at 500 g/ha (Spodoptera frugiperda): 100%

COCC(NC(=O)c1cc(Cl)cc(C(F)(F)F)c1)C(N)=O (stereo not shown) [n-001, N-(1-amino-3-methoxy-1-oxopropan-2-yl)-3-chloro-5-(trifluoromethyl)benzamide]
chromatographic logP [3]: 1.94

NCCc1ncnn1-c1ncccn1 [a-002]
chromatographic logP [3]: 0.01

O=C(c1cc(Cl)nc(Cl)c1)N(Cc1ncnn1-c1ncccn1)CC1CC1 [Example I-002]
mortality at 100 ppm (Ctenocephalides felis [1]): 80%
pest or weed control at 160 µg/well (Diabrotica balteata): 100%
mortality at 20 ppm (Myzus persicae): 100%
mortality at 500 g/ha (Phaedon cochleariae): 100%
